A short description of series [1]: Metabolic stability in rat liver microsomes assessed as intrinsic clearance. The following applies: read-out: CLH. The class given is ADME, Microsome. On the technique in general: Liver microsomes are vesicles of endoplasmic reticulum, rich in cytochrome P450 enzymes.
Series [2] concerns the target T1, Autotaxin (Homo sapiens, UniProt Q13822).
Description: Inhibition of human recombinant ATX expressed in HEK293 cells assessed as inhibition of choline release using LPC (18:1) as substrate preincubated with enzyme for 20 mins followed by substrate addition and measured every 2 mins for 40 mins by resurofin-based fluorescence analysis
Series [3] can be described thus: Metabolic stability in human liver microsomes assessed as intrinsic clearance. The class given is ADME, Microsome. The settings on record: read-out: CLH.
Series [4] concerns the target Voltage-gated inwardly rectifying potassium channel KCNH2 (Homo sapiens, UniProt Q12809). The series is described as follows: Inhibition of human ERG expressed in CHO-K1 cells by automated Qpatch clamp assay.
The nature of series [5]: Passive Permeability of the compound across artificial membrane assessed as fraction absorbed by PAMPA assay. (PAMPA measures passive passage across an artificial lipid membrane.)
The nature of series [6]: Tmax in Sprague-Dawley rat at 10 mg/kg, po. The series is classed as ADME, organism-based. The following applies: in vivo.
A short description of series [7]: Oral bioavailability in Sprague-Dawley rat at 10 mg/kg. The class given is ADME, organism-based. The settings on record: in vivo.
A short description of series [8]: Cmax in Sprague-Dawley rat at 10 mg/kg, po. Also on record: route oral, dose 10 mg/kg. The class given is ADME, organism-based. The settings on record: in vivo.
The nature of series [9]: AUC (0 to infinity) in Sprague-Dawley rat at 10 mg/kg, po. The following applies: in vivo. Also on record: route oral, time infinity, dose 10 mg/kg. The series is classed as ADME, organism-based.
Series [10] is described as follows: Volume of distribution at steady state in Sprague-Dawley rat at 1 mg/kg, iv. The series is classed as ADME, organism-based. The settings on record: in vivo, read-out: Vdss.
A short description of series [11]: Clearance in Sprague-Dawley rat at 1 mg/kg, iv. The class given is ADME, organism-based. The settings on record: in vivo.
Series [12] can be described thus: Equilibrium solubility of compound at pH 6.8. The class given is physicochemical. The settings on record: buffer.
The nature of series [13]: Half life in Sprague-Dawley rat at 1 mg/kg, iv. The settings on record: in vivo. The series is classed as ADME, organism-based.
Series [14] is described as follows: (§1) In vivo inhibition of ATX in po dosed Sprague-Dawley rat assessed as inhibition of LPA formation in serum by LC-MS analysis. The series is classed as functional, organism-based.
The next series concerns Rattus norvegicus. The series is described as §1. The class given is functional, organism-based.
For series [15], the target named is T1, Autotaxin. The series is described as follows: Inhibition of ATX in human serum assessed as reduction in LPA (18:1) level by LC-MS analysis. The series is classed as cell-free.

SMILES strings stand for the structures.

Chain of Voltage-gated inwardly rectifying potassium channel KCNH2 (Q12809 whole entry): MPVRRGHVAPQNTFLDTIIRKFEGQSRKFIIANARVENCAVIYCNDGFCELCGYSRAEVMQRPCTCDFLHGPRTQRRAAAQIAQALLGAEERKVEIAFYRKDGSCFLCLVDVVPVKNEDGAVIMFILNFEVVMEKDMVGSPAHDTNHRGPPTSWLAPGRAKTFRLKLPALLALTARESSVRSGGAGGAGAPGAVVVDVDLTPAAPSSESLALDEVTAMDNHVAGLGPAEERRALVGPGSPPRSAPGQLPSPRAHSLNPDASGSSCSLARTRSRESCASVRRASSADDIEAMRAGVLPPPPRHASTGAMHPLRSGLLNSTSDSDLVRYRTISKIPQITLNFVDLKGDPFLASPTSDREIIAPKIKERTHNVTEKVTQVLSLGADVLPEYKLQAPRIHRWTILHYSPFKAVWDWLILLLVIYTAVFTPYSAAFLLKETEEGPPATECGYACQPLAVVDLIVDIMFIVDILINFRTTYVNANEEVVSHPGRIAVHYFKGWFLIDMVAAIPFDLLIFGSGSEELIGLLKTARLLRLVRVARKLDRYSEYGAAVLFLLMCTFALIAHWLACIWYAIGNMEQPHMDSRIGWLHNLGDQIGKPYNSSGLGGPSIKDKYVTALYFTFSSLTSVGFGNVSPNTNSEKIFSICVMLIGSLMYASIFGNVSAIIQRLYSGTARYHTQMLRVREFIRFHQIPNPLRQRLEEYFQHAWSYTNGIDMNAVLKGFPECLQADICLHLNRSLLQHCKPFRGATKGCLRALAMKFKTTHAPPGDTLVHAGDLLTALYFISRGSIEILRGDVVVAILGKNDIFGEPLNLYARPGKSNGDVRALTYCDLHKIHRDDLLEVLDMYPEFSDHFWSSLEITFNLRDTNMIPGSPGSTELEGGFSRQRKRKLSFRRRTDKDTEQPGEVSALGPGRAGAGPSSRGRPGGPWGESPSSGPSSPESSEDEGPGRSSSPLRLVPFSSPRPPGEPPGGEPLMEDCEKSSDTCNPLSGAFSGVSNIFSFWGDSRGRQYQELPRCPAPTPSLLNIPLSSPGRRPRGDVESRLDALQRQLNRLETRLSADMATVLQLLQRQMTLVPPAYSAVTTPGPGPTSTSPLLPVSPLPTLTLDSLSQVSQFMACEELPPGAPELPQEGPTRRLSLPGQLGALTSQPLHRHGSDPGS

What is called IC50 is the concentration that inhibits the measured activity by half. As for `Cc1nnn(Cc2cc(Cl)ccc2/C=C/C(=O)N2CCN(Cc3ccc(F)cc3)CC2)n1`, the microsomal CLint in series [1] was determined as 470 µL/min/mg. The compound also yielded an IC50 on Autotaxin [2] of 20 nM.

For the compound `C[C@@H]1CN(Cc2ccc(F)cc2)CCN1C(=O)/C=C/c1ccc(Cl)cc1Cn1ncnn1`, in series [1], the microsomal CLint worked out at 730 µL/min/mg. This compound displayed a 50% inhibitory concentration (IC50) against Autotaxin [2] of 16 nM.

For the compound `Cc1ncn(C2CCN(C(=O)/C=C/c3ccc(C(F)(F)F)cc3Cn3nnc(C)n3)CC2)n1`, the microsomal CLint stood at 16 µL/min/mg in [3] and 15 µL/min/mg in [1]. The IC50 in [4] was determined as 25000 nM; at Autotaxin [2], 16 nM.

As for `Cc1nnn(Cc2cc(Cl)ccc2/C=C/C(=O)N2CCN(C(=O)c3ccc(F)cc3)CC2)n1`, in series [1], the microsomal CLint amounted to 71 µL/min/mg. The compound also registered an IC50 at Autotaxin [2] of 1600 nM.

As for `Cc1nnn(Cc2cc(C(F)(F)F)ccc2/C=C/C(=O)N2CCC(C#N)CC2)n1`, the Fa in series [5] was 27%. In series [1], the microsomal CLint is 28 µL/min/mg. For the same compound, the IC50 amounted to 25000 nM in series [4] and 790 nM against Autotaxin [2].

Take `COc1ccc(CN2CCN(C(=O)/C=C/c3ccc(Cl)cc3Cn3nnc(C)n3)CC2)nc1`: in [1], the microsomal CLint was 190 µL/min/mg. The midpoint of inhibition in [4], the IC50, lay at 1900 nM.

`Cc1noc(C2CCN(C(=O)/C=C/c3ccc(C(F)(F)F)cc3Cn3nnc(C)n3)CC2)n1`: the microsomal CLint in [1] came out at 36 µL/min/mg.

For the compound `COc1ccc(CN2CCN(C(=O)/C=C/c3ccc(Cl)cc3Cn3nnc(C)n3)CC2)cc1`, the microsomal CLint in series [1] turned out to be 520 µL/min/mg. The midpoint of inhibition against Autotaxin [2], the IC50, lay at 9.2 nM.

Take `Cc1cnn(Cc2cc(Cl)ccc2/C=C/C(=O)N2CCN(Cc3ccc(F)cc3)C[C@H]2C)n1`: in [1], the microsomal CLint was 690 µL/min/mg. Moreover, the IC50 against Autotaxin [2] is 5.9 nM.

As to `Cc1nnn(Cc2cc(C(F)(F)F)ccc2/C=C/C(=O)N2CCC(Cl)CC2)n1`, in series [5], the Fa came out at 89%. Also, in series [1], the microsomal CLint turned out to be 89 µL/min/mg. The results for the IC50 (in [4]; at Autotaxin [2]) were greater than 30000 nM and 60 nM, respectively.

For the compound `Cc1nnn(Cc2cc(Cl)ccc2/C=C/C(=O)N2CCNC[C@H]2C)n1`, the microsomal CLint in series [1] was found to be 84 µL/min/mg. Moreover, the IC50 at Autotaxin [2] was found to be 95 nM.

For `Cc1nnn(Cc2cc(Cl)ccc2/C=C/C(=O)N2CCN(Cc3ccc(F)cc3)C[C@H]2C)n1`, the microsomal CLint in [3] is 230 µL/min/mg; in [1] it was 510 µL/min/mg. 9.6 nM corresponded to half-maximal inhibition at Autotaxin [2] (IC50).

As a reminder, the Tmax is the time at which the peak concentration occurs. The bioavailability is dose-corrected exposure relative to a reference, in per cent. By Cmax is commonly meant the maximum level reached in the sampled fluid or tissue. One may read the AUC as the area under the concentration-time curve, a measure of exposure. In general, clearance refers to the volume of plasma or blood freed of the substance per unit of time. Broadly, the solubility (thermodynamic) is the concentration in solution at equilibrium with solid. Usually half-life stands for the time needed for the level to fall by half in the phase considered. Turning to `Cc1nnn(Cc2cc(Cl)ccc2/C=C/C(=O)N2CCN(Cc3coc(C)n3)CC2)n1`, the Tmax in series [6] turned out to be 0.4 h. The same compound returned a bioavailability in series [7] of 52%. The peak level in series [8] (Cmax) was 2.8 µM. Moreover, the AUC in series [9] turned out to be 4.4 µM·h. Also, the Vd in series [10] is 1.6 L/kg. Besides, in [11], the clearance was 45 mL/min/kg. The solubility (thermodynamic) in [12] is greater than 1000 µM. The compound also gave a half-life in series [13] of 0.8 h. The microsomal CLint in [1] turned out to be 72 µL/min/mg. The IC50 in [4] was 23000 nM.

Consider `Cc1nnn(Cc2cc(C(F)(F)F)ccc2/C=C/C(=O)N2CCC(C(F)(F)F)CC2)n1`, for which the microsomal CLint in series [1] was 41 µL/min/mg. Inhibition against Autotaxin [2] was half-maximal at 13 nM (IC50).

In the case of `Cc1nnn(Cc2cc(Cl)ccc2CCC(=O)N2CCN(Cc3ccc(F)cc3)C[C@H]2C)n1`, the microsomal CLint in series [1] is greater than 920 µL/min/mg. Also, half-maximal inhibition against Autotaxin [2] (IC50) was put at 19 nM.

With `Cc1nnn(Cc2cc(C(F)(F)F)ccc2/C=C/C(=O)N2CCC(c3noc(C)n3)CC2)n1`, the figures for the microsomal CLint in [3] and in [1] were 19 µL/min/mg and 35 µL/min/mg, respectively. In [4], this compound registered an IC50 greater than 30000 nM.

As to `Cc1nnn(Cc2cc(C(F)(F)F)ccc2/C=C/C(=O)N2CCC(c3nnc(C)o3)CC2)n1`, the Tmax in series [6] worked out at 1.3 h. Also, the IC50 turned out to be 5 nM in series [14], 12 nM on Autotaxin [15] and 23000 nM in series [4]. Further, the inhibition entry with Rattus norvegicus was “Dose-dependent effect”. The bioavailability in [7] was determined as 94%. The compound further showed a Cmax in [8] of 5.1 µM. Moreover, in [9], the AUC was determined as 23.2 µM·h. Besides, the Vd in series [10] was determined as 1.8 L/kg. Also, in series [11], the clearance came to 15 mL/min/kg. For the same compound, the half-life in series [13] was 3.6 h. In addition, the microsomal CLint came to 13 µL/min/mg in series [3] and 19 µL/min/mg in series [1].

On to `Cc1nnn(Cc2cc(Cl)ccc2/C=C/C(=O)N2CCC(Cc3ncc(C)o3)CC2)n1`, for which the microsomal CLint in series [1] came out at 570 µL/min/mg.

`Cc1cc(CN2CCN(C(=O)/C=C/c3ccc(Cl)cc3Cn3nnc(C)n3)CC2=O)on1`: the microsomal CLint in series [1] is 87 µL/min/mg. Moreover, at Autotaxin [2], the IC50 stood at 26 nM.

On to `Cc1cc(CN2CCN(C(=O)/C=C/c3ccc(Cl)cc3Cn3nnc(C)n3)CC2)on1`, for which, in series [1], the microsomal CLint was found to be 88 µL/min/mg. In [4], this compound returned an IC50 of 12000 nM.

Regarding `Cc1noc(Cc2cc(Cl)ccc2/C=C/C(=O)N2CCN(Cc3ccc(F)cc3)C[C@H]2C)n1`, in [1], the microsomal CLint is 580 µL/min/mg. This compound also yielded an IC50 against Autotaxin [2] of 18 nM.

In the case of `Cc1nnn(Cc2cc(Cl)ccc2/C=C/C(=O)N2CCN(Cc3cnn(C)c3)CC2)n1`, the microsomal CLint in series [1] was 49 µL/min/mg. In addition, the IC50 in series [4] worked out at 15000 nM.

In the case of `Cc1nnn(Cc2cc(Cl)ccc2/C=C/C(=O)N2CCC(Cc3nnc(C)o3)CC2)n1`, the microsomal CLint in series [1] amounted to 89 µL/min/mg. This compound registered an IC50 in [4] greater than 30000 nM.

(Values after ChEMBL document CHEMBL4673273, “Development of autotaxin inhibitors: A series of tetrazole cinnamides” (Bioorg Med Chem Lett, 2021).)
